Experimental data from paper PMC9866191, “Novel 9-Benzylaminoacridine Derivatives as Dual Inhibitors of Phosphodiesterase 5 and Topoisomerase II for the Treatment of Colon Cancer” (Molecules, 2023).

Key:
[1] = biological target: T1, PDE5A (Homo sapiens, UniProt O76074); test: Phosphodiesterase 5 HTRF cGMP assay; type: biochemical; settings: for IC50: means ± S.D. (n = 4), read-out: PDE5 IC50; for inhibition at 10 µM: read-out: PDE5 % Inhibition at 10 μM
T1 construct: purchased BPS Bioscience, San Diego, CA, USA
Procedure: All the synthesized acridine derivatives were tested for their in vitro ability to inhibit PDE5A at a screening dose of 10 µM.
The enzyme activities of phosphodiesterase 5 (PDE5) were measured using an HTRF cGMP assay kit (Cisbio, Codolet, France). […] Afterward, the HTRF reagent (cGMP-d2 and anti-cGMP-cryptate) was added for 1 h at 25 °C, and PDE activity was assayed on an HTRF reader (Tecan Infinite F200 Pro).

[2] = test system: 786-0; test: NCI-60 one-dose screen; type: cell-based; settings: Homo sapiens; 786-0, Renal Cancer panel; single dose 10^−5 M; read-out: Growth inhibition %
[3] = test system: ACHN; test: NCI-60 one-dose screen; type: cell-based; settings: Homo sapiens, Renal Cancer panel, single dose 10^−5 M, read-out: Growth inhibition %
[4] = test system: BT-549; test: NCI-60 one-dose screen; type: cell-based; settings: Homo sapiens; BT-549, Breast Cancer panel; single dose 10^−5 M; read-out: Growth inhibition %
[5] = test system: CAKI-1; test: NCI-60 one-dose screen; type: cell-based; settings: Homo sapiens; CAKI-1, Renal Cancer panel; single dose 10^−5 M; read-out: Growth inhibition %
[6] = test system: COLO 205; test: NCI-60 one-dose screen; type: cell-based; settings: Homo sapiens; COLO 205, Colon Cancer panel; single dose 10^−5 M; read-out: Growth inhibition %
[7] = test system: DU-145; test: NCI-60 one-dose screen; type: cell-based; settings: Homo sapiens; DU-145, Prostate Cancer panel; single dose 10^−5 M; read-out: Growth inhibition %
[8] = test system: EKVX; test: NCI-60 one-dose screen; type: cell-based; settings: Homo sapiens, Non-small cell lung panel, single dose 10^−5 M, read-out: Growth inhibition %
[9] = test system: HCT-15; test: NCI-60 one-dose screen; type: cell-based; settings: Homo sapiens; HCT-15, Colon Cancer panel; single dose 10^−5 M; read-out: Growth inhibition %
[10] = test system: HL-60(TB); test: NCI-60 one-dose screen; type: cell-based; settings: Homo sapiens, Leukemia panel, single dose 10^−5 M, read-out: Growth inhibition %
[11] = test system: HS 578T; test: NCI-60 one-dose screen; type: cell-based; settings: Homo sapiens, Breast Cancer panel, single dose 10^−5 M, read-out: Growth inhibition %
[12] = test system: HT29; test: NCI-60 one-dose screen; type: cell-based; settings: Homo sapiens, HT-29; HT29, Colon Cancer panel; single dose 10^−5 M; read-out: Growth inhibition %
[13] = test system: K-562; test: NCI-60 one-dose screen; type: cell-based; settings: Homo sapiens, K562; K-562, Leukemia panel; single dose 10^−5 M; read-out: Growth inhibition %
[14] = test system: KM12; test: NCI-60 one-dose screen; type: cell-based; settings: Homo sapiens; KM12, Colon Cancer panel; single dose 10^−5 M; read-out: Growth inhibition %
[15] = test system: MDA-MB-231/ATCC; test: NCI-60 one-dose screen; type: cell-based; settings: Homo sapiens, Breast Cancer panel, single dose 10^−5 M, read-out: Growth inhibition %
[16] = test system: MDA-MB-435; test: NCI-60 one-dose screen; type: cell-based; settings: Homo sapiens; MDA-MB-435, Melanoma panel; single dose 10^−5 M; read-out: Growth inhibition %
[17] = test system: MOLT-4; test: NCI-60 one-dose screen; type: cell-based; settings: Homo sapiens; MOLT-4, Leukemia panel; single dose 10^−5 M; read-out: Growth inhibition %
[18] = test system: NCI-H226; test: NCI-60 one-dose screen; type: cell-based; settings: Homo sapiens; NCI-H226, Non-small cell lung panel; single dose 10^−5 M; read-out: Growth inhibition %
[19] = test system: OVCAR-3; test: NCI-60 one-dose screen; type: cell-based; settings: Homo sapiens; OVCAR-3, Ovarian Cancer panel; single dose 10^−5 M; read-out: Growth inhibition %
[20] = test system: OVCAR-8; test: NCI-60 one-dose screen; type: cell-based; settings: Homo sapiens; OVCAR-8, Ovarian Cancer panel; single dose 10^−5 M; read-out: Growth inhibition %
[21] = test system: SK-MEL-28; test: NCI-60 one-dose screen; type: cell-based; settings: Homo sapiens; SK-MEL-28, Melanoma panel; single dose 10^−5 M; read-out: Growth inhibition %
[22] = test system: SK-MEL-5; test: NCI-60 one-dose screen; type: cell-based; settings: Homo sapiens; SK-MEL-5, Melanoma panel; single dose 10^−5 M; read-out: Growth inhibition %
[23] = test system: SNB-75; test: NCI-60 one-dose screen; type: cell-based; settings: Homo sapiens; SNB-75, CNS Cancer panel; single dose 10^−5 M; read-out: Growth inhibition %
[24] = test system: SR; test: NCI-60 one-dose screen; type: cell-based; settings: Homo sapiens, Leukemia panel, single dose 10^−5 M, read-out: Growth inhibition %
[25] = test system: SW-620; test: NCI-60 one-dose screen; type: cell-based; settings: Homo sapiens; SW-620, Colon Cancer panel; single dose 10^−5 M; read-out: Growth inhibition %
[26] = test system: UO-31; test: NCI-60 one-dose screen; type: cell-based; settings: Homo sapiens; UO-31, Renal Cancer panel; single dose 10^−5 M; read-out: Growth inhibition %
[27] = test system: SF-268; test: NCI-60 one-dose screen; type: cell-based; settings: Homo sapiens; SF-268, CNS Cancer panel; single dose 10^−5 M; read-out: Growth inhibition %
[28] = test system: HCT-116; test: MTT cell proliferation assay, HCT-116; settings: for % Inhibition at 10 µM: 72 h MTT, means ± SD
Procedure: In the MTT assay, 96-well culture plates were used. A total of 7 × 10^4 cells per well were seeded, and test materials were added to the cells at various concentrations [47, 48]. Human cancer and non-cancer cell lines were purchased commercially from the American Type Culture Collection (ATCC). After 72 h, the cytotoxicity of the compounds and paclitaxel (as a positive control group) was detected using the MTT method (thiazolyl blue tetrazolium bromide, Sigma-M2128). Absorbance values at 570 and 620 nm (OD = OD570–OD620) were measured using an ELISA reader (Anthos Labtec Instruments, Salzburg, Austria).

[29] = test system: CCD-966SK; test: MTT cell proliferation assay, CCD-966SK; settings: CCD966SK skin fibroblast; 10 µM; 72 h MTT

SMILES	IC50 [1]	inhibition at 10 µM [1]	inhibition at 10 µM [2]	inhibition at 10 µM [3]	inhibition at 10 µM [4]	inhibition at 10 µM [5]	inhibition at 10 µM [6]	inhibition at 10 µM [7]	inhibition at 10 µM [8]	inhibition at 10 µM [9]	inhibition at 10 µM [10]	inhibition at 10 µM [11]	inhibition at 10 µM [12]	inhibition at 10 µM [13]	inhibition at 10 µM [14]	inhibition at 10 µM [15]	inhibition at 10 µM [16]	inhibition at 10 µM [17]	inhibition at 10 µM [18]	inhibition at 10 µM [19]	also measured
c1ccc(CCNc2c3ccccc3nc3ccccc23)cc1 [Compound 23, Acridin-9-yl-phenethyl-amine]	6.68 ± 1.1 µM	57.3 ± 3.58%	61.9%	78.4%	26.4%	69.7%	78.8%	62%	63.7%	76.7%	58.7%	26.7%	77.9%	75%	42.6%	56.7%	44.7%	75.4%	43.7%	29%	inhibition at 10 µM [20]: 61.7%; inhibition at 10 µM [21]: 32.3%; inhibition at 10 µM [22]: 35.3%; inhibition at 10 µM [23]: 32.4%; inhibition at 10 µM [24]: 79.1%; inhibition at 10 µM [25]: 71.7%; inhibition at 10 µM [26]: 75.8%; inhibition at 10 µM [27]: 33.5%; % Inhibition at 10 µM [28]: 40.12 ± 0.11%; % Inhibition at 10 µM [29]: 11.36 ± 7.38%
c1csc(-c2ccc(CNc3c4ccccc4nc4ccccc34)cc2)c1 [Compound 24, Acridin-9-yl-(4-thiophen-2-yl-benzyl)-amine]	> 10 µM	42.9 ± 5.35%	70%	41.4%	66.3%	64.5%	94.9%	38.3%	41%	166%	157%	39.4%	147%	140%	73.7%	61.7%	183%	98%	31%	90.5%	inhibition at 10 µM [20]: 44.4%; inhibition at 10 µM [21]: 186%; inhibition at 10 µM [22]: 191%; inhibition at 10 µM [23]: 63.9%; inhibition at 10 µM [24]: 144%; inhibition at 10 µM [25]: 172%; inhibition at 10 µM [26]: 72%; inhibition at 10 µM [27]: 37.1%; % Inhibition at 10 µM [28]: 57.14 ± 3.10%; IC50 ([28]; read-out: IC50 μM, 72 h MTT, means ± SD, three experiments): 7 ± 0.56 µM; % Inhibition at 10 µM [29]: 47.41 ± 2.48%
